“Also recorded” adds a separate entry of the source. Read-outs that look alike come from different tables or passages of the source.
How the values were obtained:
[1] = tested on: adult, female mosquitoes; assay: Topical application on adult female mosquitoes (24-h mortality, 1-h knockdown); format: in vivo, mosquito; conditions: for ED50: read-out: KD50 (ug/g mosquito); for LD50: read-out: LD50 (ug/g mosquito); for insecticidal properties compared with natural pogostone, natural pyrethrins or terpenoids: words, refers to Table 1
[2] = tested on: adult female mosquitoes; assay: whole plant or invertebrate; conditions: for LD50 / mortality at 0.5 % / mortality at 1.5 %: 24 h; for LD50: read-out: 24-hour Mortality LD50 (μg/g mosquito); for Percent Knockdown at 1 Hour / Percent Mortality: mosquitoes; for Percent Knockdown at 1 Hour: 0.5% solutions; for Percent Mortality: 24 hours; for ranking in knockdown and mortality screenings: words; for pest or weed control at 0.5 % / pest or weed control at 1.5 % / mortality at 0.5 % / mortality at 1.5 %: Culicidae; for pest or weed control at 0.5 % / pest or weed control at 1.5 %: 1 h; for pest or weed control at 0.5 %: read-out: Knockdown at 0.5%; for pest or weed control at 1.5 %: read-out: Knockdown at 1.5%; for mortality at 0.5 %: read-out: Mortality at 0.5%; for mortality at 1.5 %: read-out: Mortality at 1.5%
Protocol: The first group of DHAA-based derivatives that were tested included Formula A2, Formula B3, Formula C3, and Formula D3. A solution of 0.5% or 1.5% of each of these compounds was applied to the mosquitoes, as described above. […] Acetone was used as a control.

[3] = tested on: house flies; assay: Knockdown and mortality of DHAA-based derivatives on house flies; format: in vivo, house fly
Excerpt: Accordingly, further derivatives with structures similar to Formula C3 were synthesized and tested for knockdown potential and mortality in house flies and mosquitoes using an experimental design similar to the one described above. These compounds include Formula C5, Formula C6, Formula C7, Formula C8, Formula C9, and Formula C10.

[4] = Mosquito Knockdown Properties (1 hour), topical application
[5] = Mosquito Toxicity (24 hours), topical application to pronotum

## Cc1ccc(C(C)C)cc1O [Carvacrol, reference compound]
[1]; topical, 1 h
  ED50: 2000 mg/kg
[1]; topical, 24 h
  LD50: 3400 mg/kg
[2]; topical
  LD50: 3400 mg/kg

## CCC(=O)c1c(O)cc(C)oc1=O [Formula 7]
[1]; [4]
  ED50: > 1500 mg/kg
[1]; [5]
  LD50: > 1500 mg/kg

## CCOC(=O)/C(O)=C/C(=O)c1c(O)cc(C)oc1=O [Formula 8]
[1]; [4]
  ED50: > 1500 mg/kg
[1]; [5]
  LD50: > 1500 mg/kg

## CC(C)CCC(=O)c1c(O)cc(-c2ccccc2)oc1=O [Formula 9]
[1]; [4]
  ED50: > 1500 mg/kg
[1]; [5]
  LD50: > 1500 mg/kg

## CC(C)CCC(=O)c1c(O)cc(C(C)(C)C)oc1=O [Formula 11]
[1]; [4]
  ED50: > 1500 mg/kg
[1]; [5]
  LD50: > 1500 mg/kg

## CC(=O)C1=Cc2ccccc2OC1 [Formula 16]
[1]; topical, 24 h
  LD50: > 1500 mg/kg

## CC(C)CCC(=O)C1=Cc2ccccc2OC1 [Formula 17]
[1]; topical, 1 h
  ED50: > 1500 mg/kg
[1]; topical, 24 h
  LD50: > 1500 mg/kg

## CCCCCCCCCC(=O)c1c(O)c2ccccc2oc1=O [Formula 18]
[1]; topical, 1 h
  ED50: > 1500 mg/kg
[1]; topical, 24 h
  LD50: > 1500 mg/kg

## CCCCCCCCCC(=O)c1c(O)c2ccccc2n(C)c1=O [Formula 20]
[1]; topical, 24 h
  LD50: > 1500 mg/kg

## Cc1ccc2oc(=O)c(C(=O)CCC(C)C)c(O)c2c1 [Formula 21]
[1]; topical, 1 h
  ED50: > 1500 mg/kg
[1]; topical, 24 h
  LD50: 534 mg/kg

## C=CCCC(=O)c1cc2ccccc2oc1=O [Formula 22]
[1]; topical, 24 h
  LD50: > 1500 mg/kg

## CCCCCCCC(=O)c1c(O)c2ccccc2oc1=O [Formula 25]
[1]; topical, 1 h
  ED50: > 1500 mg/kg
[1]; topical, 24 h
  LD50: > 1500 mg/kg

## O=C(c1c(O)c2ccccc2oc1=O)C1CCC1 [Formula 27]
[1]; topical, 1 h
  ED50: > 1500 mg/kg
[1]; topical, 24 h
  LD50: 28.8 mg/kg
[1]
  insecticidal properties compared with natural pogostone, natural pyrethrins or terpenoids: possessed better insecticidal properties at least as well as natural pyrethrins
[2]; in vivo
  1-hour Knockdown EC50 (μg/g mosquito): >1500 μg/g mosquito
[2]; topical
  LD50: 29 mg/kg

## CC(C)C(=O)c1c(O)c2cc(Cl)ccc2oc1=O [Formula 34]
[1]; [4]
  ED50: > 1500 mg/kg
[1]; [5]
  LD50: 111 mg/kg
[1]
  insecticidal properties compared with natural pogostone, natural pyrethrins or terpenoids: possessed better insecticidal properties than natural pogostone

## Cc1cc(O)c(C(=O)Nc2ccccc2)c(=O)o1 [Formula A3]
[2]
  Percent Knockdown at 1 Hour: 4%
[2]; at 0.5%
  Percent Mortality: 5%
[2]; at 1.5%
  Percent Mortality: 19%

## CCCCC(CC)CNC(=O)c1c(O)cc(C)oc1=O (stereo not drawn) [Formula B3]
[2]
  Percent Knockdown at 1 Hour: 2%
[2]; at 0.5%
  Percent Mortality: 9%
[2]; at 1.5%
  Percent Mortality: 16%

## Cc1cc(O)c(C(=O)COC(C)C)c(=O)o1 [Formula C3]
[2]
  Percent Knockdown at 1 Hour: 98%
  ranking in knockdown and mortality screenings: performed the best in terms of highest percent knockdown and mortality; also recorded: performed the best in the initial knockdown and mortality screenings
[2]; at 0.5%
  Percent Mortality: 89%
[2]; at 1.5%
  Percent Mortality: 88%
[2]; topical
  LD50: 183 mg/kg

## Cc1cc(O)c(C(=O)CSCC(=O)O)c(=O)o1 [Formula C6]
[2]
  Mosquito Knockdown at 0.5% concentration: 27%
  Mosquito Mortality at 0.5% concentration: 43%
  Mosquito Knockdown at 1.5% concentration: 18%
  Mosquito Mortality at 1.5% concentration: 15%
[3]
  House Fly Knockdown at 0.5% concentration: 2.5%
  House Fly Mortality at 0.5% concentration: 10%
  House Fly Knockdown at 1.5% concentration: 7%
  House Fly Mortality at 1.5% concentration: 6%

## Cc1cc(O)c(C(=O)COCc2ccccc2)c(=O)o1 [Formula C7]
[2]
  Mosquito Knockdown at 0.5% concentration: 10%
  Mosquito Mortality at 0.5% concentration: 23%
  Mosquito Knockdown at 1.5% concentration: 20%
  Mosquito Mortality at 1.5% concentration: 15%
[3]
  House Fly Knockdown at 0.5% concentration: 2.5%
  House Fly Mortality at 0.5% concentration: 13%
  House Fly Knockdown at 1.5% concentration: 1%
  House Fly Mortality at 1.5% concentration: 9%

## CCOCC(=O)c1c(O)cc(C)oc1=O [Formula C8]
[2]
  Mosquito Knockdown at 0.5% concentration: 43%
  Mosquito Mortality at 0.5% concentration: 73%
  Mosquito Knockdown at 1.5% concentration: 80%
  Mosquito Mortality at 1.5% concentration: 80%
  ranking in knockdown and mortality screenings: performed the best in the initial knockdown and mortality screenings
[2]; mosquito, topical, 1 hour
  1-hour Knockdown EC50 (μg/g mosquito): 661 μg/g mosquito
[2]; topical
  LD50: 256 mg/kg
[3]
  House Fly Knockdown at 0.5% concentration: 0%
  House Fly Mortality at 0.5% concentration: 3%
  House Fly Knockdown at 1.5% concentration: 2%
  House Fly Mortality at 1.5% concentration: 13%

## COCC(=O)c1c(O)cc(C)oc1=O [Formula C9]
[2]
  Mosquito Knockdown at 0.5% concentration: 37%
  Mosquito Mortality at 0.5% concentration: 73%
  Mosquito Knockdown at 1.5% concentration: 53%
  Mosquito Mortality at 1.5% concentration: 70%
[3]
  House Fly Knockdown at 0.5% concentration: 0%
  House Fly Mortality at 0.5% concentration: 5%
  House Fly Knockdown at 1.5% concentration: 1%
  House Fly Mortality at 1.5% concentration: 6%

## Cc1cc(O)c(C(=O)COCC(=O)O)c(=O)o1 [Formula C14]
[2]; topical
  pest or weed control at 0.5 %: 7%
  pest or weed control at 1.5 %: 0%
  mortality at 0.5 %: 13%
  mortality at 1.5 %: 40%

## Cc1cc(O)c(C(=O)CC(O)C2CCCCC2)c(=O)o1 (stereo not drawn) [Formula C15]
[2]; topical
  pest or weed control at 0.5 %: 23%
  pest or weed control at 1.5 %: 50%
  mortality at 0.5 %: 33%
  mortality at 1.5 %: 63%
[2]
  ranking in knockdown and mortality screenings: appear to be the most potent insecticidal compounds

## Cc1cc2c(c(=O)o1)C(=O)CC(C(C)C)O2 (stereo not drawn) [Formula C16]
[2]; topical
  pest or weed control at 0.5 %: 0%
  pest or weed control at 1.5 %: 7%
  mortality at 0.5 %: 3%
  mortality at 1.5 %: 3%

## CC(=O)CCC(=O)c1c(O)cc(C)oc1=O [Formula C17]
[2]; topical
  pest or weed control at 0.5 %: 27%
  pest or weed control at 1.5 %: 13%
  mortality at 0.5 %: 47%
  mortality at 1.5 %: 7%

## Cc1cc(O)c(C(=O)CCC=O)c(=O)o1 [Formula C18]
[2]; topical
  pest or weed control at 0.5 %: 3%
  pest or weed control at 1.5 %: 0%
  mortality at 0.5 %: 3%
  mortality at 1.5 %: 7%

## Cc1cc(O)c(C(=O)CCC(O)CBr)c(=O)o1 (stereo not drawn) [Formula C20]
[2]; topical
  pest or weed control at 0.5 %: 17%
  pest or weed control at 1.5 %: 10%
  mortality at 0.5 %: 10%
  mortality at 1.5 %: 20%

## Cc1cc(O)c(C(=O)/C=C/C(C)(C)C)c(=O)o1 [Formula C21]
[2]; topical
  pest or weed control at 0.5 %: 3%
  pest or weed control at 1.5 %: 7%
  mortality at 0.5 %: 0%
  mortality at 1.5 %: 0%

## Cc1cc2occ(CC(C)C)c(=O)c2c(=O)o1 [Formula C22]
[2]; topical
  pest or weed control at 0.5 %: 10%
  pest or weed control at 1.5 %: 10%
  mortality at 0.5 %: 7%
  mortality at 1.5 %: 13%

## CC(C)CCC(=O)C1C(=O)N(C)C(=O)N(C)C1=O [Formula C24]
[2]; topical
  pest or weed control at 0.5 %: 93%
  pest or weed control at 1.5 %: 100%
  mortality at 0.5 %: 97%
  mortality at 1.5 %: 97%
[2]
  ranking in knockdown and mortality screenings: appear to be the most potent insecticidal compounds

## CC(C)C(O)CC(=O)c1c(O)c2ccccc2oc1=O (stereo not drawn) [Formula C25]
[2]; topical
  pest or weed control at 0.5 %: 93%
  pest or weed control at 1.5 %: 100%
  mortality at 0.5 %: 100%
  mortality at 1.5 %: 100%
[2]
  ranking in knockdown and mortality screenings: appear to be the most potent insecticidal compounds

## C=CCCC(=O)c1c(O)cc(C)oc1=O [Formula C26]
[2]; topical
  pest or weed control at 0.5 %: 100%
  pest or weed control at 1.5 %: 97%
  mortality at 0.5 %: 100%
  mortality at 1.5 %: 100%
[2]
  ranking in knockdown and mortality screenings: appear to be the most potent insecticidal compounds

## CC(=O)c1c(O)c2ccccc2oc1=O [Formula C27]
[2]; topical
  pest or weed control at 0.5 %: 100%
  pest or weed control at 1.5 %: 73%
  mortality at 0.5 %: 97%
  mortality at 1.5 %: 83%

## Cc1ccc(C(C)C)c(O)c1 [Thymol, reference compound]
[1]; [4]
  ED50: 1700 mg/kg

Source: patent publication US20200024246A1, “POGOSTONE DERIVATIVES AND METHODS OF USING THE SAME” (Hamyard Associates LLC, priority 2018, published 2020)
